Earlier results as cited in patent US11213539B2, “Use of ivermectin and brimonidine in the treatment and/or prevention of moderate to severe rosacea” (GALDERMA HOLDING SA, priority 2015, dated 2022).

Tested on: patients treated with brimonidine 0.33% gel
Settings: brimonidine used alone; in a number of patients, in particular worsening of erythema (rebound)

In the case of `Brc1c(NC2=NCCN2)ccc2nccnc12` [brimonidine], the related adverse effects is given as “excessive”.
